Data taken from patent US20250326765A1, “PDE4B INHIBITOR AND USE THEREOF” (XIZANG HAISCO PHARMACEUTICAL CO., LTD., priority 2022, published 2025).

What was measured:
[1] = Pharmacokinetic test in beagle dogs; format: in vivo
Procedure: 6.1 Experimental animals: male beagle dogs, about 8-11 kg, 6 beagle dogs/compound, purchased from Beijing Marshall Biotechnology Co., Ltd.
6.2 Experimental method: On the day of the experiment, 18 beagle dogs were randomly grouped according to their body weights. The animals were fasted with water available for 12-14 h one day before administration and fed 4 h after administration. Administration was carried out according to Table 8.
Before and after administration, 1 ml of blood was taken from the jugular vein or limb vein and placed in an EDTAK2 centrifuge tube. Centrifugation was carried out at 5000 rpm at 4° C. for 10 min, and plasma was collected. The blood collection time points for the intravenous group and intragastric group were both 0 min, 5 min, 15 min, 30 min, 1 h, 2 h, 4 h, 6 h, 8 h, 10 h, 12 h, 24 h, 48 h, and 72 h. Before analysis and detection, all the samples were stored at −80° C., and the samples were subjected to quantitative analysis using LC-MS/MS.

[2] = Pharmacokinetic test in monkeys; format: in vivo, cynomolgus monkeys
Procedure: Experimental animals: Male cynomolgus monkeys, 3-5 kg, 3-6 years old, 6 monkeys/compound. Purchased from Suzhou Xishan Biotechnology Inc.
Experimental method: On the day of the experiment, 12 monkeys were randomly grouped according to their body weights. The animals were fasted with water available for 14-18 h one day before administration and fed 4 h after administration.
Before and after administration, 1.0 mL of blood sample was taken from the limb vein and placed in an EDTAK2 centrifuge tube. Centrifugation was carried out at 5000 rpm at 4° C. for 10 min, and plasma was collected. The blood collection time points for the intravenous group were 0 min, 5 min, 15 min, 30 min, 1 h, 2 h, 4 h, 6 h, 8 h, 10 h, 12 h, and 24 h. Before analysis and detection, all the samples were stored at −80° C., and the samples were subjected to quantitative analysis using LC-MS/MS.

[3] = target: T1, hERG potassium ion channel (Homo sapiens, UniProt Q12809); test: Test for hERG potassium ion channel (manual patch-clamp, CHO cells); format: cell-based; settings: CHO cells stably expressing hERG, whole cell patch-clamp; read-out: IC50, inhibition of hERG potassium channel current
T1 construct: expressed in transfected cells
Excerpt: Experimental Platform: Electrophysiological Manual Patch-Clamp System
Cell line: Chinese hamster ovary (CHO) cell line stably expressing hERG potassium ion channel
Experimental method: CHO (Chinese Hamster Ovary) cells stably expressing hERG potassium channel were subjected to a whole cell patch-clamp technique to record the hERG potassium channel current at room temperature. The glass microelectrode was made of a glass electrode blank (BF150-86-10, Sutter) by a puller. The tip resistance after filling the liquid in the electrode was about 2-5 MQ. The glass microelectrode can be connected to the patch-clamp amplifier by inserting the glass microelectrode into an amplifier probe. The clamping voltage and data recording were controlled and recorded by the pClamp 10 software through a computer. The sampling frequency was 10 kHz, and the filtering frequency was 2 kHz. After the whole cell records were obtained, the cells were clamped at −80 mV, and the step voltage that induced the hERG potassium current (IhERG) was depolarized from −80 mV to +20 mV for 2 s, then repolarized to −50 mV, and returned to −80 mV after 1 s. This voltage stimulation was given every 10 s, and the administration process was started after the hERG potassium current was confirmed to be stable (at least 1 minute). The compound was administered for at least 1 minute at each test concentration, and at least 2 cells (n: 2) were tested at each concentration.
Data processing: Data analysis processing was carried out by using pClamp 10, GraphPad Prism 5, and Excel software. The degree of inhibition on the hERG potassium current (peak value of hERG tail current induced at −50 mV) at different compound concentrations was calculated by the following formula:
[formula] • where Inhibition % represents the percentage inhibition of the compound on the hERG potassium current, and I and Io represent the amplitude of the hERG potassium current after and before administration, respectively.
Compound IC50 was calculated using GraphPad Prism 5 software by fitting according to the following equation: […]

[4] = Pharmacokinetic test in mice; format: in vivo, ICR mice
Procedure: 5.1 Experimental animals: Male ICR mice, 20-25 g, 6 mice/compound. Purchased from Chengdu Ddossy Experimental Animals Co., Ltd.
5.2 Experimental design: On the day of the experiment, 42 ICR mice were randomly grouped according to their body weights. The animals were fasted with water available for 12-14 h one day before administration and fed 4 h after administration.
Before and after administration, 0.06 mL of blood was taken from the orbit under isoflurane anesthesia and placed in an EDTAK2 centrifuge tube for centrifugation at 5000 rpm at 4-C for 10 min, followed by plasma collection. The blood collection time points for the intravenous group and intragastric group were both 0 m, 5 mi, 15 mi, 30 mi, 1 h, 2 h, 4 h, 6 h, 8 h, and 24 h. Before analysis and detection, all the samples were stored at −80° C., and the samples were subjected to quantitative analysis using LC-MS/MS.

[5] = male, dog, iv, plasma, i.v. (1 mg/kg)
[6] = male, dog, po, plasma, i.g. (5 mg/kg)
[7] = male, cynomolgus monkey, iv, plasma, i.v. (1 mg/kg)
[8] = male, ICR, mouse, iv, plasma, i.v. (5 mg/kg)
[9] = male, ICR, mouse, po, plasma, i.g. (10 mg/kg)

T1 sequence (Q12809 whole entry): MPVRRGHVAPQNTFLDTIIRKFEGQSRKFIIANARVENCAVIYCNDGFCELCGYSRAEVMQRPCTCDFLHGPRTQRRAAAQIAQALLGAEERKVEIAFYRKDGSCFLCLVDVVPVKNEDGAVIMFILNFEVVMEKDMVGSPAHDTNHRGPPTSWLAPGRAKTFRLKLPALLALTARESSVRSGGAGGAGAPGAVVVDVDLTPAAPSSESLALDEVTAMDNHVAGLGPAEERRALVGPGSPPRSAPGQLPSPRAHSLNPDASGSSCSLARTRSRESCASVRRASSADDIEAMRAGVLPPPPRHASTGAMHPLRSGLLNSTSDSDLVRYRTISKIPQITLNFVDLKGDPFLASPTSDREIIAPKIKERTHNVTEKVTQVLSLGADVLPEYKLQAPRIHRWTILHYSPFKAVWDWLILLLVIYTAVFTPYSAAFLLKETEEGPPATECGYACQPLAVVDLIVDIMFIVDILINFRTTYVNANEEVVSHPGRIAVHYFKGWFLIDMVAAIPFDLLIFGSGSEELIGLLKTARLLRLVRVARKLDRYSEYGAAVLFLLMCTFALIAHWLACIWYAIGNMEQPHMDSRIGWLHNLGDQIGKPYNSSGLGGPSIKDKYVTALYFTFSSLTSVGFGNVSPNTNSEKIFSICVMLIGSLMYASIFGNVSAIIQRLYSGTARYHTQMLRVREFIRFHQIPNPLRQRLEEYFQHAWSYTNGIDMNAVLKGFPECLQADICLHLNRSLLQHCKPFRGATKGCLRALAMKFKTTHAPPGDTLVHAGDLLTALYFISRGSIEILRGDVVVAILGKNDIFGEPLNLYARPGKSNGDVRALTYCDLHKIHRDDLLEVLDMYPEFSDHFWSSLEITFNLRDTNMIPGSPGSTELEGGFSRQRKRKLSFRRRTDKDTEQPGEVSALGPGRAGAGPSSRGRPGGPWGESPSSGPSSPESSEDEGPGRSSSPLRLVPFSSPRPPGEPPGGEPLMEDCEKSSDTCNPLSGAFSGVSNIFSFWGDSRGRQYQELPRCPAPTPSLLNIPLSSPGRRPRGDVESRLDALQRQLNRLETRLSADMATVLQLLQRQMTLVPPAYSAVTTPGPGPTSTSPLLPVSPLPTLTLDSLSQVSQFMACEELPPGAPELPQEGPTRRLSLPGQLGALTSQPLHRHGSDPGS

F ([1]; i.g. (5 mg/kg)) [%] | AUC(0-t) [1, 5] [ng·h/mL] | clearance [1, 5] [mL/min/kg] | half-life [1, 5] [h] | Vd ([1]; male, dog, iv, plasma, i.v. (1 mg/kg), read-out: Vdss) [L/kg] | AUC(0-t) [1, 6] [ng·h/mL] | half-life [1, 6] [h] | F ([2]; i.g. (3 mg/kg)) [%] | AUC(0-t) [2, 7] [ng·h/mL] | clearance [2, 7] [mL/min/kg] | Vd ([2]; male, cynomolgus monkey, iv, plasma, i.v. (1 mg/kg), read-out: Vdss) [L/kg] | AUC(0-t) ([2]; male, cynomolgus monkey, po, plasma, i.g. (3 mg/kg)) [ng·h/mL] | F ([4]; i.g. (10 mg/kg)) [%] | AUC(0-t) [4, 8] [ng·h/mL] | clearance [4, 8] [mL/min/kg] | half-life [4, 8] [h] | Vd ([4]; male, ICR, mouse, iv, plasma, i.v. (5 mg/kg), read-out: Vdss) [L/kg] | AUC(0-t) [4, 9] [ng·h/mL] | half-life [4, 9] [h] | Compound | IC50 [3] [µM]
≥98 | 7070 ± 3250 | 2.69 ± 1.7 | 5.85 ± 0.63 | 0.957 ± 0.37 | 26100 ± 11900 | 7.38 ± 1.2 | 30.9 ± 13 | 8550 ± 664 | 1.95 ± 0.15 | 0.888 ± 0.16 | 7930 ± 3240 |  |  |  |  |  |  |  | [O-][S@+]1CCc2nc(N3C[C@H]4CN(c5ccc6c(c5)CC6)C[C@H]4C3)nc(NC3(CO)CCC3)c21 [Compound 31] | 12.2
 |  |  |  |  |  |  |  |  |  |  |  | ≥98 | 6000 ± 1090 | 7.03 ± 1.1 | 3.34 ± 0.3 | 1.3 ± 0.086 | 26900 ± 3910 | 4.3 ± 0.69 | C#Cc1cnc(C2=CCN(c3nc4c(c(NC5(CO)CCC5)n3)[S+]([O-])CC4)CC2)nc1 (stereo not drawn) [Compound 37] | 13.3
